Assays:
BT-549 = test: Antiproliferative activity against human BT-549 cells assessed as reduction in cell viability; format: functional, cell-based
cells = conditions: Homo sapiens, Triple-negative breast cancer cell
Description: Antiproliferative activity against human Triple-negative breast cancer cell

[1] = target: Protein cereblon/CREB-binding protein (Homo sapiens, UniProt Q92793+Q96SW2); test: PROTAC activity at CBP/CRBN in human VCaP cells assessed as protein degradation incubated for 24 hrs by Western blot analysis; format: cell-based
MDA-MB-231 = test: Antiproliferative activity against human MDA-MB-231 cells assessed as reduction in cell viability incubated for 72 hrs by MTT assay; format: functional, cell-based; conditions: MDA-MB-231, 72 h
[2] = target: T1, Protein cereblon/Bromodomain-containing protein 4 (Homo sapiens, UniProt O60885+Q96SW2); test: PROTAC activity at CRBN/BRD4 in human NAMALVA cells assessed as protein degradation incubated for 6 hrs by Western blot analysis; format: cell-based
T1 sequence (Q96SW2 whole entry, looked up, other chains not shown): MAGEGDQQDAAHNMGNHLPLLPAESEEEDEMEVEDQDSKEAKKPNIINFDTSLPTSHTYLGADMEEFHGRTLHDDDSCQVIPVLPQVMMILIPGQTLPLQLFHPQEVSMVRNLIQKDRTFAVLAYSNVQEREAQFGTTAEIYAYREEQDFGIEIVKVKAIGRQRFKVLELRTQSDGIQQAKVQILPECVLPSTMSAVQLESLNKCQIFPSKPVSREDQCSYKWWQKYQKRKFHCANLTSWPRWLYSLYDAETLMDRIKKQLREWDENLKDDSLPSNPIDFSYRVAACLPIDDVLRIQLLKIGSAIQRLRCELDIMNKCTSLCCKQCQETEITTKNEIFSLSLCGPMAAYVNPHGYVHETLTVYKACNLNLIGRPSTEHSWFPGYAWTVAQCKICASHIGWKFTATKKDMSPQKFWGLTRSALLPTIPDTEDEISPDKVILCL

[3] = target: T1, Protein cereblon/Bromodomain-containing protein 4; test: PROTAC activity at CRBN/BRD4 in human CA46 cells assessed as protein degradation incubated for 6 hrs by Western blot analysis; format: cell-based
[4] = Cytotoxicity against human HAP1 cells assessed as reduction in cell viability measured for 24 hrs by SRB assay; format: functional, cell-based; conditions: HAP1, 24 h
[5] = target: Bromodomain-containing protein 4 (Homo sapiens, UniProt O60885); test: Binding affinity to BRD4 BD2 (unknown origin) assessed as dissociation constant by SPR assay
[6] = target: von Hippel-Lindau disease tumor suppressor/Bromodomain-containing protein 4 (Homo sapiens, UniProt O60885+P40337); test: PROTAC activity at VHL/BRD4 in human HeLa cells assessed as protein degradation of BRD4 incubated for 24 hrs by Western blot analysis; format: cell-based
Sequence of von Hippel-Lindau disease tumor suppressor/Bromodomain-containing protein 4 (P40337 whole entry, looked up, other chains not shown): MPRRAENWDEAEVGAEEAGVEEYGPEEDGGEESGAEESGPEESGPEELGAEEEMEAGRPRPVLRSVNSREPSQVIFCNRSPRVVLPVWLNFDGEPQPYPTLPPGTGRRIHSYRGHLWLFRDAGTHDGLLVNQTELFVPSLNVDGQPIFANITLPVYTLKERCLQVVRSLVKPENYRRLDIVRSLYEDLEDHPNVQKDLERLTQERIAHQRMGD

MV4-11 = test: Cytotoxicity against human MV4-11 cells assessed as reduction in cell viability incubated for 72 hrs by cell titer glo assay; format: functional, cell-based; conditions: MV4-11, 72 h
LNCaP = test: Antiproliferative activity against human LNCaP cells assessed as inhibition of cell viability incubated for 48 hrs by CellTiter-Glo assay; format: functional, cell-based

Sequence of Protein cereblon/CREB-binding protein (Q92793 whole entry): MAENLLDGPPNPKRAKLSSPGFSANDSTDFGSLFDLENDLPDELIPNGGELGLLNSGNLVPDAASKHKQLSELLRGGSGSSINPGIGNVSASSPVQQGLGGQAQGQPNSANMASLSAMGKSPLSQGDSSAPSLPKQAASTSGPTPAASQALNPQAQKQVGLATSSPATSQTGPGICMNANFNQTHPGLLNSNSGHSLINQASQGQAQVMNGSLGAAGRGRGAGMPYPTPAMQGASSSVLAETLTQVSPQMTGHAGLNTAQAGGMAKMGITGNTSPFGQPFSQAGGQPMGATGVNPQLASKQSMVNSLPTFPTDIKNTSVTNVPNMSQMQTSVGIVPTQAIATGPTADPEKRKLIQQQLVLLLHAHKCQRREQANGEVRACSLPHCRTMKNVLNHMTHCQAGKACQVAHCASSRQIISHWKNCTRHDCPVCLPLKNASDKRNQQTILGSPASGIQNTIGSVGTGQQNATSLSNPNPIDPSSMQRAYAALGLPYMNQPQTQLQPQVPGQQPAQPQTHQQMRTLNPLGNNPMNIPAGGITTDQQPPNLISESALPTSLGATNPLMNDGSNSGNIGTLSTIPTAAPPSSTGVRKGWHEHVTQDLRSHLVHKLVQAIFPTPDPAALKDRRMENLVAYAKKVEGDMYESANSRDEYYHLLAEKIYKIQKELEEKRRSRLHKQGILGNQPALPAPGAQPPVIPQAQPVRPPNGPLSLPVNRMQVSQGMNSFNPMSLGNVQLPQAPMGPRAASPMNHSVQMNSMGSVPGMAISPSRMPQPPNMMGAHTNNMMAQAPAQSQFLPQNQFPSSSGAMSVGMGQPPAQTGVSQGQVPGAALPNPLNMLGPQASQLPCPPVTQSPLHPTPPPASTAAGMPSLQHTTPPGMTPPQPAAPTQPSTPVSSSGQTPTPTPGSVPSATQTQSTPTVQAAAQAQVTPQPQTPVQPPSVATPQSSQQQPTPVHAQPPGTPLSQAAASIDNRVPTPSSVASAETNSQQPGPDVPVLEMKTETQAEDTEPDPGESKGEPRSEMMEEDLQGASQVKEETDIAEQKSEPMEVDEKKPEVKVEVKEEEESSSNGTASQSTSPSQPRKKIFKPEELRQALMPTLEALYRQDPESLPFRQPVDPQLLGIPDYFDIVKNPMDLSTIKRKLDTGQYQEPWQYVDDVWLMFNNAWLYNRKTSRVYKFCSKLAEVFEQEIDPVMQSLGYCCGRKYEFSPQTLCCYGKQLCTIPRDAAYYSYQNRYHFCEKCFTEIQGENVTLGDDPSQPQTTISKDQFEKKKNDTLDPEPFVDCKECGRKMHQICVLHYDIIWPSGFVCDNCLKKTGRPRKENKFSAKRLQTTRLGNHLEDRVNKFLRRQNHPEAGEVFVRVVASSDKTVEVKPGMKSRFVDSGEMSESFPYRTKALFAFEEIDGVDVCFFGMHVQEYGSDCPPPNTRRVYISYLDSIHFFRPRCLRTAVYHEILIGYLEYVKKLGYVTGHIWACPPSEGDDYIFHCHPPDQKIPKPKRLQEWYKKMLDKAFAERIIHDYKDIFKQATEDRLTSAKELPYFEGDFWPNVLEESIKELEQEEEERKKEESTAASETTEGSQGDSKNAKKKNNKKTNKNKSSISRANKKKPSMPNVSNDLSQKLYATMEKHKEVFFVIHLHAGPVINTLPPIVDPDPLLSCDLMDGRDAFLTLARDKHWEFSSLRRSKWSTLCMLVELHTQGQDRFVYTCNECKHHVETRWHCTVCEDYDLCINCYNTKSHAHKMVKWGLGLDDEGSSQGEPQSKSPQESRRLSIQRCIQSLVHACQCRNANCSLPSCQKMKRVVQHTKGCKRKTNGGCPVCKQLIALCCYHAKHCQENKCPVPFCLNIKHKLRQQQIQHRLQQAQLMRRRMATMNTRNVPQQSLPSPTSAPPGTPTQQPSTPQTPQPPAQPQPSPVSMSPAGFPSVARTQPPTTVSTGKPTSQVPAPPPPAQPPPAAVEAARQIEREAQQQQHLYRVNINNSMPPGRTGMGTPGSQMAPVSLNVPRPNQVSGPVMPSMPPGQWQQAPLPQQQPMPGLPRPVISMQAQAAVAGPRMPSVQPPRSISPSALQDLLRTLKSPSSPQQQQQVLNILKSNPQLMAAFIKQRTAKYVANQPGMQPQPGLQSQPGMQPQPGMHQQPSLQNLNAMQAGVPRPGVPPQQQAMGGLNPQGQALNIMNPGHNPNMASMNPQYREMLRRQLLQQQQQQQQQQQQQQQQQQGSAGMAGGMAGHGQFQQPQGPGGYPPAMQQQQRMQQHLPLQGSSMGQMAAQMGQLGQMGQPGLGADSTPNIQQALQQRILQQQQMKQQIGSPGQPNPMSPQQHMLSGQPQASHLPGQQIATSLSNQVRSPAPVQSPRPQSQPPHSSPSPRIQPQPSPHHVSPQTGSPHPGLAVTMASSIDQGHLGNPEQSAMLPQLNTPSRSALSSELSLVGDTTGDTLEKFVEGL
Sequence of Protein cereblon/CREB-binding protein (Q96SW2 whole entry): as the sequence (Q96SW2 whole entry, looked up, other chains not shown) above

SMILES: Cc1sc2c(c1C)C(c1ccc(Cl)cc1)=N[C@@H](CC(=O)OC(C)(C)C)c1nnc(C)n1-2
- IC50 (BT-549): 5.2 µM
- IC50 (cells): 9.9 µM

SMILES: Cc1ncsc1-c1ccc([C@H](C)NC(=O)[C@@H]2C[C@@H](O)CN2C(=O)[C@@H](NC(=O)COCCCOCCNC(=O)C[C@@H]2N=C(c3ccc(Cl)cc3)c3c(sc(C)c3C)-n3c(C)nnc32)C(C)(C)C)cc1
- DC50 [1]: 0.005 µM

SMILES: Cc1sc2c(c1C)C(c1ccc(Cl)cc1)=N[C@@H](CC(=O)NCCCCOc1ccc(Oc3ccc(N(Cc4ccccc4)C(=O)CCl)cc3)cc1)c1nnc(C)n1-2
- IC50 (MDA-MB-231): 0.54 µM

SMILES: Cc1sc2c(c1C)C(c1ccc(Cl)cc1)=N[C@@H](CC(=O)Nc1ccc(OCCOCCOCCOCCCc3cccc4c3C(=O)N(C3CCC(=O)NC3=O)C4=O)cc1)c1nnc(C)n1-2 (stereo partly specified)
- DC50 [2]: < 0.001 µM
- DC50 [3]: < 0.001 µM

SMILES: Cc1sc2c(c1C)C(c1ccc(Cl)cc1)=N[C@@H](CC(=O)NCCCCOc1ccc(C3CC(c4ccc(Br)cc4)=NN3C(=O)CCl)cc1)c1nnc(C)n1-2 (stereo partly specified)
- IC50 [4]: 0.47 µM

SMILES: CC(=O)N[C@H](C(=O)N1C[C@H](O)C[C@H]1C(=O)NCc1ccc(-c2scnc2C)cc1)C(C)(C)SCCCCCCNC(=O)C[C@@H]1N=C(c2ccc(Cl)cc2)c2c(sc(C)c2C)-n2c(C)nnc21
- Kd [5]: 0.0044 µM

SMILES: Cc1ncsc1-c1ccc2c(c1)OCCOCCOC[C@@H](NC(=O)C[C@@H]1N=C(c3ccc(Cl)cc3)c3c(sc(C)c3C)-n3c(C)nnc31)COCCOCCOCC(=O)N[C@@H](C(C)(C)C)C(=O)N1C[C@H](O)C[C@H]1C(=O)NC2
- DC50 [6]: 0.64 µM
- IC50 (MV4-11): 0.3 µM

SMILES: CN[C@@H](C)C(=O)N[C@H](C(=O)N1CCC[C@H]1c1nc(C(=O)c2cccc(OCCOCCOCCOCCNC(=O)C[C@@H]3N=C(c4ccc(Cl)cc4)c4c(sc(C)c4C)-n4c(C)nnc43)c2)cs1)C1CCCCC1
- IC50 (LNCaP): 0.077 µM

Reference: ChEMBL document CHEMBL6092131, “Synthesis, SAR, and application of JQ1 analogs as PROTACs for cancer therapy” (Bioorg Med Chem, 2024)
